The source of these data is patent US20160296499A1, “Spiroindoline Antiparasitic Derivatives” (ZOETIS SERVICES LLC, priority 2013, published 2016).

Where two headings read alike, the source gives them in different places.

The target in assay [1] is T1, bovine vesicular acetylcholine transporter (VAChT) (Bos taurus, UniProt E1BK36).
T1 sequence (E1BK36 1-524): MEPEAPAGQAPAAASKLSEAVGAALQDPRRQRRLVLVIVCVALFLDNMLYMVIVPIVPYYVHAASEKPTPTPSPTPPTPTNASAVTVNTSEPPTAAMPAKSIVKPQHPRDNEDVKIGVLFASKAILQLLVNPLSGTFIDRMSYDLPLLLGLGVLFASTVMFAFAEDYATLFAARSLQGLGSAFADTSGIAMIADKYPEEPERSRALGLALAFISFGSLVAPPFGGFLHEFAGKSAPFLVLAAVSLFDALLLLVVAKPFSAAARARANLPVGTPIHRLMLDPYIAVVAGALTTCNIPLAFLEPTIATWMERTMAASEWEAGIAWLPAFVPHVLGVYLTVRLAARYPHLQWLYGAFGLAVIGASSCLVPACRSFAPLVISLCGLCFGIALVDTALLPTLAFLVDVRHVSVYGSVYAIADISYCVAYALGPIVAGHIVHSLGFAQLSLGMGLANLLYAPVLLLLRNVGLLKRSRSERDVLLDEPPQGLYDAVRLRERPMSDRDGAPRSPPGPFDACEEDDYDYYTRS
The assay can be described thus: Radioligand Binding Assay. The following applies: Bovine binding Ki, CHO-K1 membranes with recombinant bovine VAChT, [3H]Compound X6 0.3 nM.

Assay [2] deals with Dirofilaria immitis microfilariae. The assay can be described thus: Dirofilaria immitis, Microfilariae (DiMF) In Vitro Assay. To be noted: Dirofilaria immitis.
The test system of a further assay is Haemonchus contortus L3. The assay can be described thus: Haemonchus contortus, Larvae Stage 3 (HcL3) In Vitro Assay. To be noted: Haemonchus contortus.
Setting [3] is: 72 h, read-out: Di MF, MEC, decrease in microfilariae motility by visual assessment, curve starting at 100 μM.
The mark [4] stands for this setting: 96 h, read-out: HcL3 MEC, Minimal Effective Concentration whereby worm motility is inhibited by approximately 70%, 37° C., tested 0.001-100 μM.
The mark [5] stands for this setting: 96 hours, 37° C., read-out: HcL3 MEC.

As to `COc1ccc(/C=C/CN2CCC3(CC2)CN(C(=O)NCc2ccnc(Cl)c2)c2ccc4scnc4c23)cc1` [Example 42, (E)-N-((2-chloropyridin-4-yl)methyl)-1-(3-(4-methoxyphenyl)allyl)spiro[piperidine-4,8′-thiazolo[4,5-e]indole]-6′(7′H)-carboxamide], the Ki in assay [1] worked out at 55 nM. The minimal effective concentration in assay [2] (setting [3]) is 10 µM; in the assay with Haemonchus contortus L3 (setting [4]) it was more than 100 µM.
Regarding `Cc1nc2c3c(ccc2s1)N(C(=O)NCc1ccnc(Cl)c1)CC31CCN(C/C=C/c2ccc(Cl)cc2)CC1` [Example 43, (E)-1-(3-(4-chlorophenyl)allyl)-N-((2-chloropyridin-4-yl)methyl)-2′-methylspiro[piperidine-4,8′-thiazolo[4,5-e]indole]-6′(7′H)-carboxamide], the Ki in assay [1] is 264 nM. The minimal effective concentration in assay [2] (setting [3]) was 10 µM; in the assay with Haemonchus contortus L3 (setting [4]) it was more than 100 µM.
As to `Cc1nc2c3c(ccc2s1)N(C(=O)NCc1ccnc(Cl)c1)CC31CCN(C/C=C/c2ccc(F)cc2)CC1` [Example 44, (E)-N-((2-chloropyridin-4-yl)methyl)-1-(3-(4-fluorophenyl)allyl)-2′-methylspiro[piperidine-4,8′-thiazolo[4,5-e]indole]-6′(7′H)-carboxamide], the Ki in assay [1] was 507 nM. Further, the minimal effective concentration in assay [2] (72 hours, read-out: Di MF) is 10 µM; in the assay on Haemonchus contortus L3 (setting [5]), more than 100 µM.
With `Cc1nc2c3c(ccc2s1)N(C(=O)NCc1ccnc(Cl)c1)CC31CCN(C/C=C/c2ccc(C(F)(F)F)cn2)CC1` [Example 45, (E)-N-((2-chloropyridin-4-yl)methyl)-2′-methyl-1-(3-(5-(trifluoromethyl)pyridin-2-yl)allyl)spiro[piperidine-4,8′-thiazolo[4,5-e]indole]-6′(7′H)-carboxamide], the Ki in assay [1] is 3220 nM. The minimal effective concentration is 33 µM in assay [2] (setting [3]) and more than 100 µM with Haemonchus contortus L3 (setting [4]).
`COc1ccc(/C=C/CN2CCC3(CC2)CN(C(=O)NCc2ccnc(Cl)c2)c2ccc4sc(C)nc4c23)cc1` [Example 46, (E)-N-((2-chloropyridin-4-yl)methyl)-1-(3-(4-methoxyphenyl)allyl)-2′-methylspiro[piperidine-4,8′-thiazolo[4,5-e]indole]-6′(7′H)-carboxamide]: the Ki in assay [1] is 883 nM. The minimal effective concentration is 10 µM in assay [2] (setting [3]) and more than 100 µM in the assay on Haemonchus contortus L3 (setting [4]).
Take `O=C(NCc1ccnc(Br)c1)N1CC2(CCN(C/C=C/c3ccc(Cl)c(Cl)c3)CC2)c2c1ccc1scnc21` [Example 47, (E)-N-((2-bromopyridin-4-yl)methyl)-1-(3-(3,4-dichlorophenyl)allyl)spiro[piperidine-4,8′-thiazolo[4,5-e]indole]-6′(7′H)-carboxamide]: the Ki in assay [1] amounted to 919 nM. Besides, the minimal effective concentration in assay [2] (setting [3]) was found to be 10 µM; in the assay on Haemonchus contortus L3 (setting [4]) it was 100 µM.
As to `Cn1ncc2c3c(ccc21)N(C(=O)NCc1ccnc(Cl)c1)CC31CCN(C/C=C/c2ccc(Cl)cc2)CC1` [Example 51, (E)-1-(3-(4-chlorophenyl)allyl)-N-((2-chloropyridin-4-yl)methyl)-3′-methyl-3′H-spiro[piperidine-4,8′-pyrrolo[3,2-e]indazole]-6′(7′H)-carboxamide], in assay [1], the Ki stood at 518 nM. In addition, the minimal effective concentration in assay [2] (72 hours, read-out: Di MF) is 33.3 µM; in the assay with Haemonchus contortus L3 (setting [5]), more than 100 µM.
Regarding `Cn1ncc2c3c(ccc21)N(C(=O)NCc1ccnc(Cl)c1)CC31CCN(C/C=C/c2ccc(F)cc2)CC1` [Example 52, (E)-N-((2-chloropyridin-4-yl)methyl)-1-(3-(4-fluorophenyl)allyl)-3′-methyl-3′H-spiro[piperidine-4,8′-pyrrolo[3,2-e]indazole]-6′(7′H)-carboxamide], the Ki in assay [1] was 778 nM. Moreover, the minimal effective concentration is 10 µM in assay [2] (setting [3]) and more than 100 µM in the assay on Haemonchus contortus L3 (setting [4]).
Take `Cn1ncc2c3c(ccc21)N(C(=O)NCc1ccnc(Cl)c1)CC31CCN(C/C=C/c2ccc(C(F)(F)F)cn2)CC1` [Example 53, (E)-N-((2-chloropyridin-4-yl)methyl)-3′-methyl-1-(3-(5-(trifluoromethyl)pyridin-2-yl)allyl)-3′H-spiro[piperidine-4,8′-pyrrolo[3,2-e]indazole]-6′(7′H)-carboxamide]: the Ki in assay [1] was 1930 nM. The minimal effective concentration in assay [2] (setting [3]) is 33 µM; in the assay with Haemonchus contortus L3 (setting [4]) it was more than 100 µM.
Regarding `COc1ccc(/C=C/CN2CCC3(CC2)CN(C(=O)NCc2ccnc(Cl)c2)c2ccc4c(cnn4C)c23)cc1` [Example 54, (E)-N-((2-chloropyridin-4-yl)methyl)-1-(3-(4-methoxyphenyl)allyl)-3′-methyl-3′H-spiro[piperidine-4,8′-pyrrolo[3,2-e]indazole]-6′(7′H)-carboxamide], the Ki in assay [1] was 1400 nM. The minimal effective concentration in assay [2] (setting [3]) was 33 µM; with Haemonchus contortus L3 (setting [4]), more than 100 µM.
The matching figures for `O=C(NCc1ccnc(Cl)c1)N1CC2(CCN(C/C=C/c3ccc(Cl)c(Cl)c3)CC2)c2cc(OC(F)(F)F)ccc21` [Example 55, (E)-N-((2-chloropyridin-4-yl)methyl)-1′-(3-(3,4-dichlorophenyl)allyl)-5-(trifluoromethoxy)spiro[indoline-3,4′-piperidine]-1-carboxamide]: 876 nM, 5.7 µM and 3.3 µM.
Turning to `O=C(NCc1ccnc(Cl)c1)N1CC2(CCN(C/C=C/c3ccc(Cl)c(Cl)c3)CC2)c2c1cccc2C(F)(F)F` [Example 56, (E)-N-((2-chloropyridin-4-yl)methyl)-1′-(3-(3,4-dichlorophenyl)allyl)-4-(trifluoromethyl)spiro[indoline-3,4′-piperidine]-1-carboxamide], the Ki in assay [1] was found to be 432 nM. Besides, the minimal effective concentration is 9.1 µM in assay [2] (72 hours, read-out: Di MF) and 4.5 µM with Haemonchus contortus L3 (setting [5]).
For `O=C(NCc1cnc(Cl)s1)N1CC2(CCN(C/C=C/c3ccc(Cl)cc3)CC2)c2c(OC(F)(F)F)ccc(Cl)c21` [Example 57, (E)-7-chloro-1′-(3-(4-chlorophenyl)allyl)-N-((2-chlorothiazol-5-yl)methyl)-4-(trifluoromethoxy)spiro[indoline-3,4′-piperidine]-1-carboxamide], the Ki in assay [1] is 954 nM. The minimal effective concentration in assay [2] (setting [3]) came to 4 µM; with Haemonchus contortus L3 (setting [4]), 70 µM.
With `O=C(NCc1ccnc(Cl)c1)N1CC2(CCN(C/C=C/c3ccc(F)cc3)CC2)c2c(OC(F)(F)F)ccc(Cl)c21` [Example 58, (E)-7-chloro-N-((2-chloropyridin-4-yl)methyl)-1′-(3-(4-fluorophenyl)allyl)-4-(trifluoromethoxy)spiro[indoline-3,4′-piperidine]-1-carboxamide], in assay [1], the Ki stood at 1360 nM. Besides, the minimal effective concentration was 10 µM in assay [2] (setting [3]) and 100 µM in the assay on Haemonchus contortus L3 (setting [4]).
With `O=C(NCc1ccnc(Cl)c1)N1CC2(CCN(C/C=C/c3ccc(Cl)cc3)CC2)c2c(Cl)cc(Cl)cc21` [Example 59, (E)-4,6-dichloro-1′-(3-(4-chlorophenyl)allyl)-N-((2-chloropyridin-4-yl)methyl)spiro[indoline-3,4′-piperidine]-1-carboxamide], the Ki in assay [1] was 284 nM. Besides, the minimal effective concentration was found to be 10 µM in assay [2] (72 hours, read-out: Di MF) and 100 µM in the assay on Haemonchus contortus L3 (setting [5]).
Consider `O=C(NCc1ccnc(F)c1)N1CC2(CCN(C/C=C/c3ccc(Cl)cc3)CC2)c2c(Cl)cc(Cl)cc21` [Example 60, (E)-4,6-dichloro-1′-(3-(4-chlorophenyl)allyl)-N-((2-fluoropyridin-4-yl)methyl)spiro[indoline-3,4′-piperidine]-1-carboxamide], for which the Ki in assay [1] turned out to be 986 nM. Also, the minimal effective concentration in assay [2] (setting [3]) was determined as 10 µM; in the assay with Haemonchus contortus L3 (setting [4]) it was 100 µM.
Turning to `O=C(NCc1ccnc(F)c1)N1CC2(CCN(C/C=C/c3ccc(Cl)cc3)CC2)c2c1cc(Cl)c(F)c2Cl` [Example 61, (E)-4,6-dichloro-1′-(3-(4-chlorophenyl)allyl)-5-fluoro-N-((2-fluoropyridin-4-yl)methyl)spiro[indoline-3,4′-piperidine]-1-carboxamide], the Ki in assay [1] was found to be 671 nM. Further, the minimal effective concentration was 10 µM in assay [2] (setting [3]) and 100 µM with Haemonchus contortus L3 (setting [4]).
As to `O=C(NCc1ccnc(F)c1)N1CC2(CCN(C/C=C/c3ccc(Cl)cc3)CC2)c2c1ccc(Cl)c2Cl` [Example 62, (E)-4,5-dichloro-1′-(3-(4-chlorophenyl)allyl)-N-((2-fluoropyridin-4-yl)methyl)spiro[indoline-3,4′-piperidine]-1-carboxamide], the Ki in assay [1] is 329 nM. The minimal effective concentration amounted to 10 µM in assay [2] (setting [3]) and 3.3 µM in the assay on Haemonchus contortus L3 (setting [4]).
Turning to `O=C(NCc1ccnc(F)c1)N1CC2(CCN(C/C=C/c3ccc(Cl)cc3)CC2)c2c1ccc(F)c2Cl` [Example 63, (E)-4-chloro-1′-(3-(4-chlorophenyl)allyl)-5-fluoro-N-((2-fluoropyridin-4-yl)methyl)spiro[indoline-3,4′-piperidine]-1-carboxamide], in assay [1], the Ki is 182 nM. The minimal effective concentration in assay [2] (setting [3]) came to 5.7 µM; in the assay with Haemonchus contortus L3 (setting [4]) it was 8.2 µM.

By Ki is commonly meant a measure of affinity in units of concentration, obtained from inhibition or displacement.
